# According to ChEMBL document CHEMBL2069271, “Design, synthesis, stereochemistry and antioxidant properties of various 7-alkylated 2,4-diaryl-3-azabicyclo[3.3.1]nonan-9-ones” (Bioorg Med Chem Lett, 2012):
# pIC50: −log10 of the molar value.
# Columns and labels:
# [1] = test system: Radical scavenging activity; assay: Antioxidant activity assessed as inhibition of DPPH radical generation relative to alpha-tocopherol; format: functional; design: scale not given: the % may be the effect or the level left
# [2] = test system: Radical scavenging activity; assay: Antioxidant activity assessed as inhibition of DPPH radical generation; format: functional
# [3] = Oral bioavailability in rat at 500 mg/kg; format: ADME, organism-based; details: in vivo
pIC50 [2],bioavailability [3] [%],SMILES,Activity [1] [%]
–,–,COc1ccc(C2NC(c3ccc(OC)c(OC)c3)C3CC(C)CC2C3=O)cc1OC (stereo unspecified),20
–,–,COc1ccc(OC)c(C2NC(c3cc(OC)ccc3OC)C3CC(C)CC2C3=O)c1 (stereo unspecified),20
4.23,–,Cc1c(C)c2c(c(C)c1O)CC[C@@](C)(CCC[C@H](C)CCC[C@H](C)CCCC(C)C)O2 [ALPHA-TOCOPHEROL],–
–,–,COc1cc(C2NC(c3cc(OC)c(OC)c(OC)c3)C3CC(C)CC2C3=O)cc(OC)c1OC (stereo unspecified),20
4.45,1,COc1cc(/C=C/C(=O)CC(=O)/C=C/c2ccc(O)c(OC)c2)ccc1O [CURCUMIN],–
